From patent US11365192B2, “Pyridine compound substituted with azole” (TAISHO PHARMACEUTICAL CO., LTD., priority 2017, dated 2022) come the findings set out here.

Where only a bound is given, the exact number is not on record here.

One assay has as its target human CYP4F2 (Homo sapiens (Human), UniProt P78329). Briefly: Inhibition test against 20-HETE producing enzyme CYP4F2 (luciferine derivative, luminescence). It counts as biochemical. On the procedure:
(§1) (1) Inhibition Test for Each Compound of the Present Invention Against 20-HETE Producing Enzymes (CYP4F2 and CYP4A11)
(§2) In the CYP4F2 inhibition test, the reaction solution containing each compound [final concentration of 50 mM, KPO4 (pH 7.4), 2.5 μM luciferine derivative, and 1 mM NADPH] was added to an Escherichia coli membrane fraction (100 μg/mL protein) in which human CYP4F2 had been expressed. In the CYP4A11 inhibition test, the reaction solution containing each compound [final concentration of 100 mM, Tris-HCl (pH 7.5), 60 μM luciferine derivative, 1.3 mM NADP^+, 3.3 mM Glucose 6-Phosphate, 3.3 mM MgCl2, and 0.4 U/mL Glucose 6-Phosphate dehydrogenase] was added to an Escherichia coli membrane fraction (100 μg/mL protein) in which human CYP4A11 had been expressed. Following this, the membrane fraction was left to stand at room temperature for 60 minutes to perform an enzymatic reaction. After the reaction, a luciferine detection reagent was added, and the luminescence value was measured using a plate reader. By using that value, the percent inhibition of 20-HETE producing enzyme (%) was calculated according to the equation described below, and the 50% inhibitory concentration (IC50 value) for each compound was calculated. Percent inhibition of 20-HETE producing enzyme (%)=[1−(A−B)/(C−B)]*100
(§3) A: Luminescence value with addition of compound
(§4) B: Luminescence value without addition of compound and enzyme

The next assay has as its target human CYP4A11 (Homo sapiens (Human), UniProt Q02928). Briefly: Inhibition test against 20-HETE producing enzyme CYP4A11 (luciferine derivative, luminescence). The format is biochemical. On the procedure:
as §1, §2, §3, §4

The mark [1] stands for this setting: human CYP4F2, luciferine derivative, luminescence.
Setting [2] is: human CYP4A11, luciferine derivative, luminescence.
Setting [3] is: E. coli membrane fraction expressing human CYP4F2, 2.5 μM luciferine derivative, room temperature 60 minutes.
Setting [4] is: E. coli membrane fraction expressing human CYP4A11, 60 μM luciferine derivative, room temperature 60 minutes.

Sequence of human CYP4F2 (P78329 5-520): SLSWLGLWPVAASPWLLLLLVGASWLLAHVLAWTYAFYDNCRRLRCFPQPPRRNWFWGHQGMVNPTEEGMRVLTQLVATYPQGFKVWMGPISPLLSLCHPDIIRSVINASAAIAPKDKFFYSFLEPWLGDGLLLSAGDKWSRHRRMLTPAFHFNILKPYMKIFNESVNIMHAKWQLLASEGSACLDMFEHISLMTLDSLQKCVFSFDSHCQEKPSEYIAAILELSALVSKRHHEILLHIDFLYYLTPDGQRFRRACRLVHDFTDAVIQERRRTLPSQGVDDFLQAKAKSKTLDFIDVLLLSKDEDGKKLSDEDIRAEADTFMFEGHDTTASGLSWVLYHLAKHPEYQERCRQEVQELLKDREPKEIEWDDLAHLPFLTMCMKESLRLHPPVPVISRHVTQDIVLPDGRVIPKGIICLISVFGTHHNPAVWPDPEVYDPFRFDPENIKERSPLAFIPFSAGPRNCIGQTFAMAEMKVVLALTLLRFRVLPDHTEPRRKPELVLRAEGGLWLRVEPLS
Sequence of human CYP4A11 (Q02928 5-519): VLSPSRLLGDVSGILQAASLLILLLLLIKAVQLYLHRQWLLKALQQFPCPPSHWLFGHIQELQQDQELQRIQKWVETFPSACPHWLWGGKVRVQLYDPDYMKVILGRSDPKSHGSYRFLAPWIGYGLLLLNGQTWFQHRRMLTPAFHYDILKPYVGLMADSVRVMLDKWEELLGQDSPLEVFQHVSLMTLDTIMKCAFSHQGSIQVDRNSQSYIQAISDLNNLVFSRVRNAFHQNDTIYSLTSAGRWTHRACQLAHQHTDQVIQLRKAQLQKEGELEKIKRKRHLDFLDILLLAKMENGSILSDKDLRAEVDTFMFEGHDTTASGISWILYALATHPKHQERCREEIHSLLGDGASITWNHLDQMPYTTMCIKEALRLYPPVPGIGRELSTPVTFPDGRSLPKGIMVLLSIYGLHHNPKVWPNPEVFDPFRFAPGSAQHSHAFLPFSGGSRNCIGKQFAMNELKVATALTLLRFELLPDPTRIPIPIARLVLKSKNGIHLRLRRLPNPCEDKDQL

On to `O=C(O)C[C@H]1CCN(C(=O)c2cccc(COc3ccc(-c4ccn[nH]4)nc3)c2)C1` [Example 45-39], for which the results for the IC50 at human CYP4F2 (setting [1]) and on human CYP4A11 (setting [2]) were 1400 nM and 470 nM, respectively.

`CS(=O)(=O)NC(=O)CCCCCOc1ccc(-c2ccn[nH]2)nc1` [Example 54-1, N-Methylsulfonyl-6-[[6-(1H-pyrazol-5-yl)-3-pyridinyl]oxy]hexanamide]: the IC50 was 21000 nM on human CYP4F2 (setting [3]) and 70 nM at human CYP4A11 (setting [4]).

As to `CC(C)(Oc1cccc(CCOc2ccc(-c3ccn[nH]3)nc2)n1)C(=O)O` [Example 71-36], the figures for the concentration for half-maximal inhibition (IC50) against human CYP4F2 (setting [1]) and at human CYP4A11 (setting [2]) were above 50000 nM and 260 nM, respectively.

Consider `O=C(O)/C=C/c1cccc(CCOc2ccc(-c3ccn[nH]3)nc2)c1` [Example 70-4], for which the figures for the IC50 against human CYP4F2 (setting [1]) and at human CYP4A11 (setting [2]) were 56 nM and 150 nM, respectively.

Regarding `O=C1CN(CCCCOc2ccc(-c3ccn[nH]3)nc2)C(=O)N1` [Example 61-2, 1-[4-[[6-(1-H-pyrazol-5-yl)-3-pyridinyl]oxy]butyl]imidazolidine-2,4-dione], the IC50 against human CYP4F2 (setting [3]) came out at 280 nM; against human CYP4A11 (setting [4]), 750 nM.

Take `O=C(O)c1cccc(OCCOc2ccc(-c3ccn[nH]3)nc2)c1` [Example 18-6]: the 50% inhibitory concentration (IC50) came out at 6100 nM at human CYP4F2 (setting [3]) and 310 nM at human CYP4A11 (setting [4]).

Turning to `O=C(O)C1CCc2c(COc3ccc(-c4ccn[nH]4)nc3)cccc2O1` (stereo not drawn) [Example 71-11], the IC50 stood at 29000 nM against human CYP4F2 (setting [1]) and 22 nM against human CYP4A11 (setting [2]).

Consider `O=C(O)C1CC2CCC(C1)N2C(=O)c1cccc(COc2ccc(-c3ccn[nH]3)nc2)c1` (stereo not drawn) [Example 45-33], for which the values for the half-inhibitory concentration (IC50) on human CYP4F2 (setting [1]) and against human CYP4A11 (setting [2]) were 19000 nM and 2000 nM, respectively.

Consider `O=C(CCc1cccc(COc2ccc(-c3ccn[nH]3)nc2)c1)N1CC(O)C1` [Example 43-10], for which the IC50 was determined as 190 nM at human CYP4F2 (setting [1]) and 140 nM against human CYP4A11 (setting [2]).

As for `CC(Oc1ccc(-c2ccn[nH]2)nc1)c1ccc(C(=O)O)cc1` (stereo not drawn) [Example 1-2], the 50% inhibitory concentration (IC50) against human CYP4F2 (setting [3]) amounted to 42000 nM; on human CYP4A11 (setting [4]) it was 250 nM.

On to `O=C(O)CCCCCOc1ccc(-c2ccn[nH]2)nc1` [Example 1-47, 6-[[6-(1H-Pyrazol-5-yl)-3-pyridinyl]oxy]hexanoic Acid], for which the IC50 stood at 14000 nM against human CYP4F2 (setting [3]) and 68 nM against human CYP4A11 (setting [4]).

For `O=C(O)C1COc2ccc(CCOc3ccc(-c4ccn[nH]4)nc3)cc2C1` (stereo not drawn) [Example 71-10], the IC50 was determined as 260 nM against human CYP4F2 (setting [1]) and 140 nM against human CYP4A11 (setting [2]).

Take `O=c1[nH]c(CCCCCOc2ccc(-c3ccn[nH]3)nc2)no1` [Example 62-2, 3-[5-[[6-(1H-Pyrazol-5-yl)-3-pyridinyl]oxy]pentyl]-4H-1,2,4-oxadiazol-5-one]: the IC50 against human CYP4F2 (setting [3]) turned out to be 1900 nM; against human CYP4A11 (setting [4]), 27 nM.

For the molecule `CN(C)C(=O)Cc1cccc(COc2ccc(-c3ccn[nH]3)nc2)c1` [Example 42-5], the IC50 on human CYP4F2 (setting [3]) worked out at 260 nM; against human CYP4A11 (setting [4]), 200 nM.

Regarding `O=C(O)C1COc2c(CCOc3ccc(-c4ccn[nH]4)nc3)cccc2C1` (stereo not drawn) [Example 71-12], the IC50 worked out at 1300 nM against human CYP4F2 (setting [1]) and 18 nM against human CYP4A11 (setting [2]).

With `CC(C)(Oc1cc(CCOc2ccc(-c3ccn[nH]3)nc2)ccn1)C(=O)O` [Example 71-34], the IC50 was 36000 nM at human CYP4F2 (setting [1]) and 1100 nM against human CYP4A11 (setting [2]).

In the case of `O=C(O)CC1CCCCN1C(=O)c1cccc(COc2ccc(-c3ccn[nH]3)nc2)c1` (stereo not drawn) [Example 45-32], the IC50 at human CYP4F2 (setting [1]) turned out to be 6800 nM; against human CYP4A11 (setting [2]), 660 nM.

`O=C(CCc1cccc(COc2ccc(-c3ccn[nH]3)nc2)c1)N1CC(F)C1` [Example 43-1, 1-(3-Fluoro-1-azetidinyl)-3-[3-[[6-(1H-pyrazol-5-yl)-3-pyridinyl]oxymethyl]phenyl]-1-propanone]: the figures for the IC50 at human CYP4F2 (setting [1]) and against human CYP4A11 (setting [2]) were 52 nM and 58 nM, respectively.

For the molecule `CC(=O)N1CCC(CCCCCCOc2ccc(-c3ccn[nH]3)nc2)(C(=O)O)C1` (stereo not drawn) [Example 3-6], the IC50 against human CYP4F2 (setting [3]) stood at 2700 nM; on human CYP4A11 (setting [4]), 810 nM.

Consider `O=C(O)c1ccc(CNC(=O)c2cccc(COc3ccc(-c4ccn[nH]4)nc3)c2)cc1` [Example 45-24], for which the half-inhibitory concentration (IC50) against human CYP4F2 (setting [1]) stood at 830 nM; against human CYP4A11 (setting [2]) it was 56 nM.

For `CC(C)(CCNC(=O)c1cncc(COc2ccc(-c3ccn[nH]3)nc2)c1)C(=O)O` [Example 45-17], the figures for the half-inhibitory concentration (IC50) at human CYP4F2 (setting [1]) and at human CYP4A11 (setting [2]) were 1000 nM and 510 nM, respectively.
